Patent publication US5567590A, “Methods of diagnosing steroid-resistant inflammation due to type I or type II nuclear glucocorticoid receptor binding abnormalities” (National Jewish Center for Immunology and Respiratory, priority 1994, dated 1996)
Where two headings read alike, the source gives them in different places.

How the values were obtained:
[1] = FEV1 response of SS and SR asthma patients to a 1 week course of oral prednisone; type: in vivo, human
Excerpt: Patients with a diagnosis of asthma, based on American Thoracic Society criteria, were selected for evaluation. […]. Patients were excluded if they had evidence for other types of lung disease, pregnancy, suspected noncompliance with medical care, or concurrent therapy with medications that alter glucocorticoid metabolism, such as anti-convulsants or erythromycin. A complete set of pulmonary function tests with lung volume, methacholine bronchial challenge, and diffusion capacity/total lung capacity ratio were obtained if the diagnosis of asthma required confirmation.
Patients were classified as SS or SR based on their prebronchodilator morning FEV1 and their response to a course of oral prednisone. […] All SR asthma patients had glucocorticoid pharmacokinetic studies to exclude those patients with an abnormality in prednisone absorption or metabolism.

[2] = 7-10 day course of high dose oral Prednisone in poorly controlled asthmatics; type: in vivo, human; conditions: Post-Pn
Experimental: 10 poorly controlled asthmatics received a 7-10 day course of high dose oral Prednisone (20-30 mg po bid). Following prednisone treatment, PBMC's were obtained as generally described in Experiment 1 and the whole cell GR number (sites/cell) and binding affinity (Kd, nmol/l) were determined using techniques generally described in Experiment 1. In addition, spirometry and serum ECP levels were measured pre- and post-Prednisone treatment. […]

[3] = tested on: PBMC from normal donors; conditions: MPN 10^-6 to 10^-9 M, 72 hours
Experimental: PBMC were then analyzed for GR-binding parameters or capacity to proliferate in the absence and presence of methylprednisone (MPN). […] After 72 hours of incubation, proliferation was measured by [^3 H]TdR incorporation (1 μCi/well, 6.7 Ci/mmol; ICN, Irvine, Calif.) during the last 6 hours of culture. Proliferation response was measured as the percent of control incorporation of [^3 ]TdR using the formula: [formula] GR-Binding Studies
PBMC from four normal donors were preincubated in the absence and presence of IL-2+IL-4, or IL-2 alone, for 48 hours and then subsequently stimulated with PMA (0.01 μM) and I (0.05 μM) in the presence and absence of MPN ranging in concentration from 10^-6 to 10^-9 M for another 72 hours. […] Each point represents the mean±SEM.

Molecule | FEV1 after steroid burst ([1]; SR asthma patients (n 17), FEV1 before BD 58 % predicted) | FEV1 after steroid burst ([1]; SS asthma patients (n 12), FEV1 before BD 47 % predicted) | GR Number ([2]; PBMC, 10 poorly controlled asthmatics, Pre-Pn 8029 ± 1875, p 0.024) [sites/cell] | ECP ([2]; serum, Pre-Pn 16.1 ± 1.9, p 0.045) [µg/L] | FEV1 /FVC Ratio ([2]; Pre-Pn 0.60 ± 0.02, p 0.014) | FEV1 ([2]; Pre-Pn 63.8 ± 3.2%, p 0.008) [% predicted] | effect of MPN on PMA/I-induced proliferation ([3]; PBMC preincubated 48 hours in culture medium alone) | effect of MPN on PMA/I-induced proliferation ([3]; PBMC preincubated 48 hours with IL-2+IL-4, compared with medium alone)
C[C@]12C=CC(=O)C=C1CC[C@@H]1[C@@H]2C(=O)C[C@@]2(C)[C@H]1CC[C@]2(O)C(=O)CO [Prednisone] | 57 | 82 | 3575 ± 1094 | 10.8 ± 1.2 | 0.70 ± 0.01 | 82.6 ± 4.4 |  | 
methylprednisone [MPN] |  |  |  |  |  |  | significant dose-dependent inhibition of proliferation | significantly decreased inhibitory effect
